# Results from US11117947B2, “Double-acylated GLP-1 derivatives” (Novo Nordisk A/S, priority 2011, dated 2021).
# pEC50: −log10 of the molar value. Like-named read-outs stand apart in the source and are kept apart here. Numbered stars: 1 amine (or outer) side, 2 acyl side, 3 side chain; on linkers, the order of the positions; unused ones are H or OH. Square brackets hold non-standard residues; d marks the D form. Side chains are listed from the residue outwards. Peptide text beside a SMILES is read from it. * marks the point of attachment. Decanoyl(10-(4-HOOC-PhO)) = O=C(O)c1ccc(OCCCCCCCCCC(=O)*)cc1; d(γGlu) = O=C(O)[C@@H](CCC(=O)[*:2])N[*:1]; γGlu = O=C(O)[C@H](CCC(=O)[*:2])N[*:1]; C14 diacid = O=C(O)CCCCCCCCCCCCC(=O)*; AEEA = NCCOCCOCC(=O)O; Aib = CC(C)(N)C(=O)O
# Assays:
# [1] = biological target: T1, human GLP-1 receptor (Homo sapiens, UniProt P43220); assay: In vitro potency: stimulation of cAMP formation (AlphaScreen cAMP Assay) in membranes expressing the human GLP-1 receptor; assay type: biochemical; settings: membranes from BHK467-12A (tk-ts13) expressing the human GLP-1 receptor
# T1 construct: expressed in transfected cells; membranes
# Procedure: Purified plasma membranes from a stable transfected cell line, BHK467-12A (tk-ts13), expressing the human GLP-1 receptor were stimulated with the GLP-1 analogue or derivative in question, and the potency of cAMP production was measured using the AlphaScreen™ cAMP Assay Kit from Perkin Elmer Life Sciences. The basic principle of the AlphaScreen Assay is a competition between endogenous cAMP and exogenously added biotin-cAMP. The capture of cAMP is achieved by using a specific antibody conjugated to acceptor beads.
# A stable transfected cell line and a high expressing clone were selected for screening. The cells were grown at 5% CO2 in DMEM, 5% FCS, 1% Pen/Strep (Penicillin/Streptomycin) and 0.5 mg/ml of the selection marker G418.
# Cells at approximately 80% confluence were washed 2× with PBS and harvested with Versene (aqueous solution of the tetrasodium salt of ethylenediaminetetraacetic acid), centrifuged 5 min at 1000 rpm and the supernatant removed. The additional steps were all performed on ice. The cell pellet was homogenised by the Ultrathurax for 20-30 s in 10 ml of Buffer 1 (20 mM Na-HEPES, 10 mM EDTA, pH=7.4), centrifuged 15 min at 20,000 rpm and the pellet resuspended in 10 ml of Buffer 2 (20 mM Na-HEPES, 0.1 mM EDTA, pH=7.4). The suspension was homogenised for 20-30 s and centrifuged 15 min at 20,000 rpm. Suspension in Buffer 2, homogenisation and centrifugation was repeated once and the membranes were resuspended in Buffer 2. The protein concentration was determined and the membranes stored at −80° C. until use.
# The final volume per well was 50 μl.
# AlphaScreen cAMP Assay Kit from Perkin Elmer Life Sciences (cat. No: 6760625M); containing Anti-cAMP Acceptor beads (10 U/μl), Streptavidin Donor beads (10 U/μl) and Biotinylated-cAMP (133 U/μl).
# cAMP standard (dilution factor in assay=5): cAMP Solution: 5 μL of a 5 mM cAMP-stock+495 μL AlphaScreen Buffer.
# Membranes were prepared from hGLP-1/BHK 467-12A cells with a concentration of 6 μg/well corresponding to 0.6 mg/ml (the amount of membranes used pr. well may vary)
# “No membranes”: Acceptor Beads (15 μg/ml final) in AlphaScreen buffer
# “6 μg/well membranes”: membranes+Acceptor Beads (15 μg/ml final) in AlphaScreen buffer
# An aliquot (10 μl) of “No membranes” was added to the cAMP standard (per well in duplicate wells) and the positive and negative controls
# An aliquot (10 μl) of “6 μg/well membranes” was added to GLP-1 and analogues (per well in duplicate or triplicate wells)
# Pos. Control: 10 μl “no membranes”+10 μl AlphaScreen Buffer
# Neg. Control: 10 μl “no membranes”+10 μl cAMP Stock Solution (50 μM)
# 1. Make the AlphaScreen Buffer.
# 2. Dissolve and dilute the GLP-1/Analogues/cAMP standard in AlphaScreen Buffer.
# 4. Add the cAMP/GLP-1/Analogues to the plate: 10 μl per well.
# 5. Prepare membrane/Acceptor Beads solution and add this to the plates: 10 μl per well.
# 6. Add the Donor Beads: 30 μl per well.
# [2] = biological target: T1, human GLP-1 receptor; assay: GLP-1 receptor binding: displacement of 125I-GLP-1 (SPA) at low and high albumin
# Outline: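 Membranes from hamster cells stably transfected with the receptor, with WGA SPA beads and 0.06 nM [^125I]-GLP-1(7-36)NH2, incubated 120 min at 30 °C with shaking.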
# [3] = low albumin, 0.001% HSA, read-out: IC50/nM (low HSA)
# T1 sequence (P43220 24-463): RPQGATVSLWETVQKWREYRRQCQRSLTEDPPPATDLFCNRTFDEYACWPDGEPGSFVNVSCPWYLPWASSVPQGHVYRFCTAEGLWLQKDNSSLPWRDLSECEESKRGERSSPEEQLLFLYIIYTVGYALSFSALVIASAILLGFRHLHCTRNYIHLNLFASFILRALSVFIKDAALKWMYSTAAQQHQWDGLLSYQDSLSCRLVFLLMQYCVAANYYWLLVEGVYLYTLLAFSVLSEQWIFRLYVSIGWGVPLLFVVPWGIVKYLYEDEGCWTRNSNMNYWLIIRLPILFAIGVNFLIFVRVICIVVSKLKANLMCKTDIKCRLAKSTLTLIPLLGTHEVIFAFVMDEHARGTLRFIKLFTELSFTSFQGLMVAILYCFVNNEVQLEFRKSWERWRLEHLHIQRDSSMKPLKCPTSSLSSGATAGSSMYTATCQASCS
Ratio [(IC50/nM) high HSA]/[(IC50/nM) low HSA] ([2]; 2.0% HSA vs 0.001% HSA),"IC50 ([2]; high albumin, 2.0% HSA, read-out: IC50/nM (high HSA)) [nM]",SMILES,pEC50 [1],"IC50 [2, 3] [nM]"
92,363,"CC[C@H](C)[C@H](NC(=O)[C@H](Cc1ccccc1)NC(=O)[C@H](CCCCNC(=O)COCCOCCNC(=O)COCCOCCNC(=O)CC[C@H](NC(=O)CCCCCCCCCCCCC(=O)O)C(=O)O)NC(=O)[C@H](CCCNC(=N)N)NC(=O)[C@@H](NC(=O)[C@H](CCCCNC(=O)COCCOCCNC(=O)COCCOCCNC(=O)CC[C@H](NC(=O)CCCCCCCCCCCCC(=O)O)C(=O)O)NC(=O)[C@H](CCC(N)=O)NC(=O)[C@H](CCC(=O)O)NC(=O)[C@H](CCC(=O)O)NC(=O)[C@H](CC(C)C)NC(=O)[C@H](Cc1ccc(O)cc1)NC(=O)[C@H](CO)NC(=O)[C@H](CO)NC(=O)[C@@H](NC(=O)[C@H](CC(=O)O)NC(=O)[C@H](CO)NC(=O)[C@@H](NC(=O)[C@H](Cc1ccccc1)NC(=O)[C@@H](NC(=O)CNC(=O)[C@H](CCC(=O)O)NC(=O)C(C)(C)NC(=O)[C@@H](N)Cc1c[nH]cn1)[C@@H](C)O)[C@@H](C)O)C(C)C)C(C)C)C(=O)N[C@@H](C)C(=O)N[C@@H](Cc1c[nH]cn1)C(=O)N[C@@H](CC(C)C)C(=O)N[C@H](C(=O)N[C@@H](CCC(N)=O)C(=O)NCC(=O)N[C@@H](CCCNC(=N)N)C(=O)NCC(=O)O)C(C)C [Example 29, N^ε24-[2-[2-[2-[[2-[2-[2-[[(4S)-4-carboxy-4-(13-carboxytridecanoylamino)butanoyl]amino]ethoxy]ethoxy]acetyl]amino]ethoxy]ethoxy]acetyl], N^ε27-[2-[2-[2-[[2-[2-[2-[[(4S)-4-carboxy-4-(13-carboxytridecanoylamino)butanoyl]amino]ethoxy]ethoxy]acetyl]amino]ethoxy]ethoxy]acetyl]-[Aib^8,Glu^22,Lys^24,Val^25,Arg^26,Lys^27,His^31,Gln^34]-GLP-1-(7-37)-peptide] (H-H[Aib]EGTFTSDVSSYLEEQK([AEEA-AEEA-γGlu-C14 diacid])VRK([AEEA-AEEA-γGlu-C14 diacid])FIAHLVQGRG-OH)",10.40,3.95
–,–,CC[C@H](C)[C@H](NC(=O)[C@H](Cc1ccccc1)NC(=O)[C@H](CCCCNC(=O)CC[C@H](NC(=O)COCCOCCNC(=O)COCCOCCNC(=O)CC[C@@H](NC(=O)CCCCCCCCCOc1ccc(C(=O)O)cc1)C(=O)O)C(=O)O)NC(=O)[C@H](CCCNC(=N)N)NC(=O)[C@@H](NC(=O)[C@H](C)NC(=O)[C@H](CCC(N)=O)NC(=O)CNC(=O)[C@H](CCC(=O)O)NC(=O)[C@H](CC(C)C)NC(=O)[C@H](Cc1ccc(O)cc1)NC(=O)[C@H](CO)NC(=O)[C@H](CO)NC(=O)[C@@H](NC(=O)[C@H](CC(=O)O)NC(=O)[C@H](CO)NC(=O)[C@@H](NC(=O)[C@H](Cc1ccccc1)NC(=O)[C@@H](NC(=O)CNC(=O)[C@H](CCC(=O)O)NC(=O)[C@H](C)NC(=O)[C@@H](N)Cc1c[nH]cn1)[C@@H](C)O)[C@@H](C)O)C(C)C)C(C)C)C(=O)N[C@@H](C)C(=O)N[C@@H](Cc1c[nH]c2ccccc12)C(=O)N[C@@H](CC(C)C)C(=O)N[C@H](C(=O)N[C@@H](CCC(N)=O)C(=O)NCC(=O)N[C@@H](CCCCNC(=O)CC[C@H](NC(=O)COCCOCCNC(=O)COCCOCCNC(=O)CC[C@@H](NC(=O)CCCCCCCCCOc1ccc(C(=O)O)cc1)C(=O)O)C(=O)O)C(=O)NCC(=O)O)C(C)C [Example 26] (H-HAEGTFTSDVSSYLEGQAVRK([γGlu-AEEA-AEEA-d(γGlu)-Decanoyl(10-(4-HOOC-PhO))])FIAWLVQGK([γGlu-AEEA-AEEA-d(γGlu)-Decanoyl(10-(4-HOOC-PhO))])G-OH; N-terminus and C-terminus assumed),9.70,0.38
–,–,"CC[C@H](C)[C@H](NC(=O)[C@H](Cc1ccccc1)NC(=O)[C@H](CCCCNC(=O)COCCOCCNC(=O)COCCOCCNC(=O)CC[C@H](NC(=O)CCCCCCCCCOc1ccc(C(=O)O)cc1)C(=O)O)NC(=O)[C@H](CCCNC(=N)N)NC(=O)[C@H](C)NC(=O)[C@H](CCCCNC(=O)COCCOCCNC(=O)COCCOCCNC(=O)CC[C@H](NC(=O)CCCCCCCCCOc1ccc(C(=O)O)cc1)C(=O)O)NC(=O)[C@H](CCC(N)=O)NC(=O)[C@H](CCC(=O)O)NC(=O)[C@H](CCC(=O)O)NC(=O)[C@H](CC(C)C)NC(=O)[C@H](Cc1ccc(O)cc1)NC(=O)[C@H](CO)NC(=O)[C@H](CO)NC(=O)[C@@H](NC(=O)[C@H](CC(=O)O)NC(=O)[C@H](CO)NC(=O)[C@@H](NC(=O)[C@H](Cc1ccccc1)NC(=O)[C@@H](NC(=O)CNC(=O)[C@H](CCC(=O)O)NC(=O)[C@H](C)NC(=O)[C@@H](N)Cc1c[nH]cn1)[C@@H](C)O)[C@@H](C)O)C(C)C)C(=O)N[C@@H](C)C(=O)N[C@@H](Cc1c[nH]cn1)C(=O)N[C@@H](CC(C)C)C(=O)N[C@H](C(=O)NCC(=O)O)C(C)C [Example 25, N^ε24-[2-[2-[2-[[2-[2-[2-[[(4S)-4-carboxy-4-[10-(4-carboxyphenoxy)decanoylamino]butanoyl]amino]ethoxy]ethoxy]acetyl]amino]ethoxy]ethoxy]acetyl], N^ε27-[2-[2-[2-[[2-[2-[2-[[(4S)-4-carboxy-4-[10-(4-carboxyphenoxy)decanoylamino]butanoyl]amino]ethoxy]ethoxy]acetyl]amino]ethoxy]ethoxy]acetyl]-[Glu^22,Lys^24,Arg^26,Lys^27,His^31,Gly^34]-GLP-1-(7-34)-peptide] (H-HAEGTFTSDVSSYLEEQK([AEEA-AEEA-γGlu-Decanoyl(10-(4-HOOC-PhO))])ARK([AEEA-AEEA-γGlu-Decanoyl(10-(4-HOOC-PhO))])FIAHLVG-OH; N-terminus and C-terminus assumed)",9.42,–
